Results as given in ChEMBL document CHEMBL3044815, “Inhibitory effects on nuclear factor B of the Vietnamese freshwater cyanobacteria” (Med Chem Res, 2011).

Key:
[1] = tested on: HeLa; test: Cytotoxicity against Homo sapiens (human) HeLa cells after 48 hr by MTT assay; format: functional, cell-based
[2] = Inhibition of TNFalpha-induced NF-kappaB activity (unknown origin) expressed in HeLa cells cotreated with compound and 10 ng/ml TNF-alpha for 24 hr by reporter gene assay; format: cell-based, Homo sapiens
[3] = Homo sapiens, HeLa, 24 h, read-out: IC50

Structure (SMILES) | Activity [1] | IC50 [2, 3] [µg/mL] | IC50 ([2]; hela)
CC(C)[C@@H](C)/C=C/[C@@H](C)[C@H]1CC[C@H]2C3=CC=C4C[C@@H](O)CC[C@]4(C)[C@H]3CC[C@]12C [ERGOSTEROL] | Dose-dependent effect | 0.91 | 
CC[C@H](CC[C@@H](C)[C@H]1CC[C@H]2[C@@H]3CC=C4C[C@@H](O)CC[C@]4(C)[C@H]3CC[C@]12C)C(C)C [BETA-SITOSTEROL] | Dose-dependent effect |  | Not Active
CC[C@H](/C=C/[C@@H](C)[C@H]1CC[C@H]2[C@@H]3CC=C4C[C@@H](O)CC[C@]4(C)[C@H]3CC[C@]12C)C(C)C [STIGMASTEROL] | Dose-dependent effect |  | Not Active
CC1=C(O)C(=O)C=C2C1=CC=C1[C@@]2(C)CC[C@@]2(C)[C@@H]3C[C@](C)(C(=O)O)CC[C@]3(C)CC[C@]12C [CELASTROL] | Dose-dependent effect | 0.72 | 
